Assay results: patent publication US20070270421A1, “Novel pyridine Derivative and Pyrimidine Derivative (1)” (priority 2004, published 2007)
pIC50: −log10 of the molar value.

Target: T1, HGFR (His6-HGFR cytoplasmic domain) (Homo sapiens, UniProt P08581)
T1 construct: made in house; host or cells: Spodoptera frugiperda Sf9 insect cells (baculovirus, pFastBac-HT)
Experiment: Inhibitory activity against HGFR tyrosine kinase activity (HTRF)
Type: biochemical
Settings: biotin-poly(GT), ATP, 30° C. 10 min, read-out: IC50 (concentration necessary to inhibit HGFR kinase activity by 50%)
Summary of the method: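 Baculovirus/Sf9-expressed N-terminal His6-tagged HGFR cytoplasmic domain (from Lys974), Ni-NTA purified, phosphorylated biotin-poly(GT) in Hepes pH 7.4 with MgCl2/MnCl2. ATP added as 4 μM solution; 10 min at 30° C., stopped with EDTA. Phosphotyrosine product detected by HTRF.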

T1 sequence (P08581 956-1390 limits assumed): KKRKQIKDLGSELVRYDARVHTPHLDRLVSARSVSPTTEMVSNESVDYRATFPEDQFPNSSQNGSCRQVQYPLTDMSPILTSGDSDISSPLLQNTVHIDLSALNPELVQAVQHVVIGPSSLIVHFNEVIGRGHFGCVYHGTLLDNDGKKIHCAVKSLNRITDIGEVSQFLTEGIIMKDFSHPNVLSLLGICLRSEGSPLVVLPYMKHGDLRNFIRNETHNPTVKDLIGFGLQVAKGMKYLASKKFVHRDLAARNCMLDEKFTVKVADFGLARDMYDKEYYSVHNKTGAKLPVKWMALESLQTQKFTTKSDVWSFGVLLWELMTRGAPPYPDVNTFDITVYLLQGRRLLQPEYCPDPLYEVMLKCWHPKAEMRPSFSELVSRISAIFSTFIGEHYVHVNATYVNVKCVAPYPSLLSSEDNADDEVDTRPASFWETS

Compound	pIC50
CN1CC(N2CCN(C(=O)Nc3cc(Oc4ccc(NC(=S)NC(=O)Cc5ccccc5)cc4F)ccn3)CC2)C1 [Example 381]	7.08
O=C(Cc1ccc(F)cc1)NC(=O)Nc1ccc(Oc2ccnc(NC(=O)N3CCN(CCN4CCC4)CC3)c2)cc1 [Example 389, 4-[2-(Azetidin-1-yl)ethyl]piperazine-1-carboxylic acid [4-(4-{3-[2-(4-fluorophenyl)acetyl]ureido}phenoxy)pyridin-2-yl]amide]	6.89
O=C(Cc1ccc(F)cc1)NC(=O)Nc1ccc(Oc2ccnc(NC(=O)N3CCC(CN4CCCC4)CC3)c2)cc1 [Example 390, 4-(Pyrrolidin-1-ylmethyl)piperidine-1-carboxylic acid [4-(4-{3-[2-(4-fluorophenyl)acetyl]ureido}phenoxy)pyridin-2-yl]amide]	6.92
O=C(Cc1ccc(F)cc1)NC(=S)Nc1ccc(Oc2cc(NC(=O)N3CCC(CN4CCC4)CC3)ncn2)c(F)c1 [Example 392, 4-(Azetidin-1-ylmethyl)piperidine-1-carboxylic acid [6-(2-fluoro-4-{3-[2-(4-fluorophenyl)acetyl]thioureido}phenoxy)pyrimidin-4-yl]amide]	7.26
O=C(Cc1ccccc1)NC(=S)Nc1ccc(Oc2ccnc(NC(=O)N3CCC(CN4CCC4)CC3)c2)c(F)c1 [Example 395, 4-(Azetidin-1-ylmethyl)piperidine-1-carboxylic acid {4-[2-fluoro-4-(3-phenylacetylthioureido)phenoxy]pyridin-2-yl}amide]	7.33

Second part, the molecule after the results:

pIC50	Compound
7.03	CN1CC(N2CCN(C(=O)Nc3cc(Oc4ccc(NC(=O)NC(=O)Cc5ccc(F)cc5)cc4F)ccn3)CC2)C1 [Example 383, 4-(1-Methylazetidin-3-yl)piperazine-1-carboxylic acid [4-(2-fluoro-4-{3-[2-(4-fluorophenyl)acetyl]ureido}phenoxy)pyridin-2-yl]amide]
6.92	O=C(Cc1ccccc1)NC(=O)Nc1ccc(Oc2ccnc(NC(=O)N3CCN(CCN4CCC4)CC3)c2)c(F)c1 [Example 387, 4-[2-(Azetidin-1-yl)ethyl]piperazine-1-carboxylic acid {4-[2-fluoro-4-(3-phenylacetylureido)phenoxy]pyridin-2-yl}amide]
7.08	CN1CC(N2CCC(N(C)C(=O)Nc3cc(Oc4ccc(NC(=S)NC(=O)Cc5ccc(F)cc5)cc4F)ncn3)CC2)C1 [Example 391, 3-(6-{2-Fluoro-4-[3-(4-fluorophenyl)acetylthioureido]phenoxy}pyrimidin-4-yl)-1-methyl-1-[1-(1-methylazetidin-3-yl)piperidin-4-yl]urea]
7.25	O=C(Cc1ccccc1)NC(=S)Nc1ccc(Oc2cc(NC(=O)N3CCC(CN4CCC4)CC3)ncn2)c(F)c1 [Example 393, 4-(Azetidin-1-ylmethyl)piperidine-1-carboxylic acid {6-[2-fluoro-4-(3-phenylacetylthioureido)phenoxy]pyrimidin-4-yl}amide]
7.35	O=C(Cc1ccc(F)cc1)NC(=S)Nc1ccc(Oc2ccnc(NC(=O)N3CCC(CN4CCC4)CC3)c2)cc1 [Example 394, 4-(Azetidin-1-ylmethyl)piperidine-1-carboxylic acid [4-(4-{3-[2-(4-fluorophenyl)acetyl]thioureido}phenoxy)pyridin-2-yl]amide]
7.26	O=C(Cc1ccccc1)NC(=S)Nc1ccc(Oc2ccnc(NC(=O)N3CCN(CCN4CCC4)CC3)c2)c(F)c1 [Example 397, 4-[2-(Azetidin-1-yl)ethyl]piperazine-1-carboxylic acid {4-[2-fluoro-4-(3-phenylacetylthioureido)phenoxy]pyridin-2-yl}amide]
7.33	O=C(Cc1ccc(F)cc1)NC(=S)Nc1ccc(Oc2ccnc(NC(=O)N3CCN(CCN4CCC4)CC3)c2)cc1 [Example 398, 4-[2-(Azetidin-1-yl)ethyl]piperazine-1-carboxylic acid [4-(4-{3-[2-(4-fluorophenyl)acetyl]thioureido}phenoxy)pyridin-2-yl]amide]
